Values quoted from earlier work in patent US20220401579A1, “INCLUSION COMPLEXES OF PHARMACEUTICALS AND CYCLIC OLIGOMERS” (DISPERSOL TECHNOLOGIES, LLC, priority 2019, published 2022).
Read-outs that look alike come from different tables or passages of the source. Each block holds one compound with its values, some of them ahead of it.

Columns and labels:
[1] = for solubility in water / aqueous media (descriptive): water or aqueous media
[2] = granulate released in the proximal small intestine

Compound: CC(O)COC[C@H]1O[C@@H]2O[C@H]3[C@H](O)[C@@H](O)[C@@H](O[C@H]4[C@H](O)[C@@H](O)[C@@H](O[C@H]5[C@H](O)[C@@H](O)[C@@H](O[C@H]6[C@H](O)[C@@H](O)[C@@H](O[C@H]7[C@H](O)[C@@H](O)[C@@H](O[C@H]8[C@H](O)[C@@H](O)[C@@H](O[C@H]1[C@H](O)[C@H]2O)O[C@@H]8COCC(C)O)O[C@@H]7COCC(C)O)O[C@@H]6COCC(C)O)O[C@@H]5COCC(C)O)O[C@@H]4COCC(C)O)O[C@@H]3COCC(C)O (stereo partly drawn) [HPBCD, hydroxy propyl β cyclodextrin]
water solubility ([1]; water): > 600 mg/mL

Compound: CCC(C)n1ncn(-c2ccc(N3CCN(c4ccc(OCC5COC(Cn6cncn6)(c6ccc(Cl)cc6Cl)O5)cc4)CC3)cc2)c1=O (stereo not shown) [Itraconazole, 2-butan-2-yl-4-[4-[4-[4-[[2-(2,4-dichlorophenyl)-2-(1,2,4-triazol-1-ylmethyl)-1,3-dioxolan-4-yl]methoxy]phenyl]-1-piperazinyl]phenyl]-1,2,4-triazol-3-one]
solubility in alcohols (descriptive) ([1]; alcohols): very slightly soluble
solubility in dichloromethane (descriptive) ([1]; dichloromethane): freely soluble
log (n-octanol/water) partition coefficient ([1]; pH 8.1): 5.66
solubility in water / aqueous media (descriptive) [1]: insoluble

Results, then the compound that gave them:

intrinsic pH of saturated solution in water ([1]; saturated solution in water): 5.7
concentration of a saturated solution in water ([1]; water): 2800 µg/mL
solubility in water / aqueous media (descriptive) [1]: soluble
Compound: COC(=O)c1ccc2c(c1)NC(=O)/C2=C(\Nc1ccc(N(C)C(=O)CN2CCN(C)CC2)cc1)c1ccccc1 [Nintedanib esylate, 1H-Indole-6-carboxylic acid, 2,3 dihydro-3-[[[4-[methyl[(4-methyl-1-piperazinyl)acetyl]amino]phenyl]amino]phenylmethylene]-2-oxo-,methyl ester, (3Z)-, ethanesulfonate (1:1)]

median Tmax (fasted): 2.00 h
median Tmax (fed): 3.98 h
increase in exposure after food intake compared to fasted conditions (fed versus fasted): approximately 20%
Compound: COC(=O)c1ccc2c(c1)NC(=O)/C2=C(\Nc1ccc(N(C)C(=O)CN2CCN(C)CC2)cc1)c1ccccc1 [Nintedanib, 1H-Indole-6-carboxylic acid, 2,3 dihydro-3-[[[4-[methyl[(4-methyl-1-piperazinyl)acetyl]amino]phenyl]amino]phenylmethylene]-2-oxo-,methyl ester]

absolute bioavailability (20 mg dose, fasted state): approximately 66%
decrease in AUC compared to tablet [2]: 29%
decrease in Cmax compared to tablet [2]: 56%
solubility in organic solvents (descriptive) ([1]; organic solvents (e.g., acetone, polyethylene glycol 400)): only slightly soluble
solubility in water / aqueous media (descriptive) [1]: practically insoluble
Compound: O=C(NC[C@H]1CN(c2ccc(N3CCOCC3=O)cc2)C(=O)O1)c1ccc(Cl)s1 [Rivaroxaban, 5-Chloro-N-({(5S)-2-oxo-3-[4-(3-oxo-4-morpholinyl)phenyl]-1,3-oxazolidin-5-yl}methyl)-2-thiophenecarboxamide]

solubility in PEG 400 (descriptive) ([1]; PEG 400): soluble
solubility in ethanol (descriptive) ([1]; ethanol): slightly soluble
solubility in water / aqueous media (descriptive) [1]: practically insoluble
Compound: CNC(=O)c1cc(Oc2ccc(NC(=O)Nc3ccc(Cl)c(C(F)(F)F)c3)cc2)ccn1 [Sorafenib, 4-[4-({[4-chloro-3-(trifluoromethyl)phenyl]carbamoyl}amino)phenoxy]-N-methylpyridine-2-carboxamide]
